Data as given in patent US20030138500A1 (priority 2001, published 2003).

Legend:
Format in all cases: in vivo
[1] = tested on: twospotted spider mites, Tetranychus urticae Koch; assay: Mortality of adult twospotted spider mites on bush bean leaves after spray treatment; settings: two days after treatment, concentration in label
Description: (§1) Adult twospotted spider mites, Tetranychus urticae Koch, were obtained from a colony and 25 mites per leaf were placed on bush bean plants (one leaf per replicate). Mites were allowed to settle overnight and then treatments were applied to wetting on top and bottom leaf surfaces using a hand-held trigger sprayer. After treatment, plants were randomized on a lab bench in a randomized block design. Treatments consisted of 9 replicates of 1 plant each. Mortality was assessed 2 days following treatment.
as §1, with “10” for “9”

[2] = tested on: Green peach aphids, Myzus persicae (Sulzer); assay: Mortality of green peach aphids sprayed on plate glass (60 seconds exposure); settings: Example 12, Table 12; after 1 day; concentration in label
Description: Green peach aphids, Myzus persicae (Sulzer), were obtained from a colony and transferred to plate glass for treatment. Treatments were then applied with a hand-held trigger sprayer to wetting and aphids remained exposed to treatments for 60 seconds. After treatment, aphids were transferred to filter paper lined petri dishes and dishes were randomized on a lab bench in a completely randomized design. Treatments consisted of 10 replicates of 10 aphids each. Mortality was assessed after 1 day.

[3] = tested on: green peach aphid, Myzus persicae (Sulzer); assay: Mortality of green peach aphids on infested radish plants after spray treatment; settings: Example 4, Table 4, after 2 days, concentration in label
Description: Radish plants were placed in a colony for 4 days for infestation with green peach aphid, Myzus persicae (Sulzer). Treatments were then applied with a hand-held trigger sprayer to wetting on all leaf surfaces. After treatment, plants were randomized on a lab bench in a completely randomized block design. Treatments consisted of 8 replicates of 1 plant each. Mortality was assessed after 2 days by counting the live and dead aphids on all leaves.

Compound | Observed % Mortality ([1]; Example 11, Table 11, adult female mites on bush bean) | Observed % Mortality [2] | Observed % Mortality ([1]; Example 2, Table 2, adult female mites on bush bean) | Observed % Mortality ([1]; Example 3, Table 3, mites on bush bean) | Observed % Mortality [3]
CC1(C)C(C=C(Cl)Cl)C1C(=O)OCc1cccc(Oc2ccccc2)c1 (centres unmarked) [Permethrin] | 26.2% | 84.0% |  |  | 
S1SSSSSSS1 [Powdered Sulfur (0.2% ai sulfur), Sulfur] |  |  | 4.5% | 2.6% | 1.3%
